According to US20230293578A1, “TREATMENT OF BACTERIAL VAGINOSIS” (priority 2020, published 2023):

Tested on: G. vag strain 14.2
Assay: antibiotic synergy testing, checkerboard cross dilution method in broth cultures
Assay type: cell-based, Gardnerella vaginalis
Details: Gardnerella vaginalis, 14.2; 32 mg/mL clindamycin, 24 hr; read-out: growth inhibited

Compound CCC[C@@H]1C[C@@H](C(=O)N[C@@H]([C@H]2O[C@H](SC)[C@H](O)[C@@H](O)[C@H]2O)[C@H](C)Cl)N(C)C1 [clindamycin, reference compound] has an inhibition at 32000 µg/mL of 27.4%.
